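Following 48 hours of exposure in 96-well plates, responses at five concentrations were used to interpolate endpoints linearly. TGI: concentration producing complete growth inhibition.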
What was measured:
Assay in all cases: NCI tumour cell line growth inhibition, 48 h
786-0 renal = test system: 786-0 renal
A498 renal = test system: A498 renal
A549 NSCLC = test system: A549 NSCLC
ACHN renal = test system: ACHN renal
BT-549 breast = test system: BT-549 breast
CAKI-1 renal = test system: CAKI-1 renal
CCRF-CEM leukemia = test system: CCRF-CEM leukemia
COLO 205 colon = test system: COLO 205 colon
DU-145 prostate = test system: DU-145 prostate
EKVX NSCLC = test system: EKVX NSCLC
HCC-2998 colon = test system: HCC-2998 colon
HCT-116 colon = test system: HCT-116 colon
HCT-15 colon = test system: HCT-15 colon
HL-60(TB) leukemia = test system: HL-60(TB) leukemia
HOP-62 NSCLC = test system: HOP-62 NSCLC
HOP-92 NSCLC = test system: HOP-92 NSCLC
HS 578T breast = test system: HS 578T breast
HT29 colon = test system: HT29 colon
IGROV1 ovarian = test system: IGROV1 ovarian
K-562 leukemia = test system: K-562 leukemia
KM12 colon = test system: KM12 colon
LOX IMVI melanoma = test system: LOX IMVI melanoma
M14 melanoma = test system: M14 melanoma
MALME-3M melanoma = test system: MALME-3M melanoma
MCF7 breast = test system: MCF7 breast
MDA-MB-231 breast = test system: MDA-MB-231 breast
MDA-MB-435 = test system: MDA-MB-435
MDA-N = test system: MDA-N
MOLT-4 leukemia = test system: MOLT-4 leukemia
NCI-H226 lung = test system: NCI-H226 lung
NCI-H23 lung = test system: NCI-H23 lung
NCI-H460 lung = test system: NCI-H460 lung
NCI-H522 lung = test system: NCI-H522 lung
NCI/ADR-RES ovarian = test system: NCI/ADR-RES ovarian
OVCAR-3 ovarian = test system: OVCAR-3 ovarian
OVCAR-4 ovarian = test system: OVCAR-4 ovarian
OVCAR-5 ovarian = test system: OVCAR-5 ovarian
OVCAR-8 ovarian = test system: OVCAR-8 ovarian
PC-3 prostate = test system: PC-3 prostate
RPMI-8226 leukemia = test system: RPMI-8226 leukemia
RXF 393 renal = test system: RXF 393 renal
SF-268 CNS = test system: SF-268 CNS
SF-295 CNS = test system: SF-295 CNS
SF-539 CNS = test system: SF-539 CNS
SK-MEL-2 melanoma = test system: SK-MEL-2 melanoma
SK-MEL-28 melanoma = test system: SK-MEL-28 melanoma
SK-OV-3 ovarian = test system: SK-OV-3 ovarian
SN12C renal = test system: SN12C renal
SNB-19 CNS = test system: SNB-19 CNS
SNB-75 CNS = test system: SNB-75 CNS
SR leukemia = test system: SR leukemia
SW-620 colon = test system: SW-620 colon
T-47D breast = test system: T-47D breast
TK-10 renal = test system: TK-10 renal
U251 CNS = test system: U251 CNS
UACC-257 melanoma = test system: UACC-257 melanoma
UACC-62 melanoma = test system: UACC-62 melanoma
UO-31 renal = test system: UO-31 renal
SK-MEL-5 melanoma = test system: SK-MEL-5 melanoma

For `CCO/C=N/C1=C(C#N)C(c2ccc(Cl)cc2)c2c(-c3ccccc3)nn(-c3ccccc3)c2O1` (configuration not stated), the TGI (786-0 renal) was 32.2 µM, the TGI (A498 renal) was 19.9 µM and the TGI (A549 NSCLC) was 21.5 µM. For the same compound, the TGI (ACHN renal) was 29.5 µM, the TGI (BT-549 breast) was 31.5 µM and the TGI (CAKI-1 renal) was 36 µM. It also gave a TGI (CCRF-CEM leukemia) greater than 100 µM, a TGI (COLO 205 colon) greater than 100 µM and a TGI (DU-145 prostate) greater than 31.6 µM. For the same compound, the TGI (EKVX NSCLC) was greater than 31.6 µM, the TGI (HCC-2998 colon) was greater than 38.9 µM and the TGI (HCT-116 colon) was greater than 47.9 µM. It also gave a TGI (HCT-15 colon) greater than 52.5 µM, a TGI (HL-60(TB) leukemia) greater than 100 µM and a TGI (HOP-62 NSCLC) of 86.5 µM. It also gave a TGI (HOP-92 NSCLC) of 29.1 µM, a TGI (HS 578T breast) greater than 28.1 µM and a TGI (HT29 colon) of 64.9 µM. For the same compound, the TGI (IGROV1 ovarian) was 45.2 µM, the TGI (K-562 leukemia) was greater than 100 µM and the TGI (KM12 colon) was 18.7 µM. The TGI (LOX IMVI melanoma) was 31 µM, the TGI (M14 melanoma) was 20.3 µM and the TGI (MALME-3M melanoma) was 30 µM. For the same compound, the TGI (MCF7 breast) was 25 µM, the TGI (MDA-MB-231 breast) was greater than 67 µM and the TGI (MDA-MB-435) was 35.8 µM. It also gave a TGI (MDA-N) of 45.8 µM, a TGI (MOLT-4 leukemia) greater than 100 µM and a TGI (NCI-H226 lung) of 46.9 µM. For the same compound, the TGI (NCI-H23 lung) was 24.5 µM, the TGI (NCI-H460 lung) was 46 µM and the TGI (NCI-H522 lung) was 18.2 µM. For the same compound, the TGI (NCI/ADR-RES ovarian) was greater than 85.4 µM, the TGI (OVCAR-3 ovarian) was greater than 45.2 µM and the TGI (OVCAR-4 ovarian) was greater than 64.8 µM. It also gave a TGI (OVCAR-5 ovarian) greater than 70.1 µM, a TGI (OVCAR-8 ovarian) greater than 80.8 µM and a TGI (PC-3 prostate) of 22.7 µM. The TGI (RPMI-8226 leukemia) was greater than 100 µM, the TGI (RXF 393 renal) was 28.6 µM and the TGI (SF-268 CNS) was 29.9 µM. For the same compound, the TGI (SF-295 CNS) was 32.2 µM, the TGI (SF-539 CNS) was greater than 26.2 µM and the TGI (SK-MEL-2 melanoma) was 34.8 µM. The TGI (SK-MEL-28 melanoma) was 39.5 µM, the TGI (SK-OV-3 ovarian) was 48.2 µM and the TGI (SN12C renal) was greater than 100 µM. The TGI (SNB-19 CNS) was 24.7 µM, the TGI (SNB-75 CNS) was 29.1 µM and the TGI (SR leukemia) was greater than 100 µM. It also gave a TGI (SW-620 colon) greater than 66.5 µM, a TGI (T-47D breast) greater than 100 µM and a TGI (TK-10 renal) of 14.2 µM. For the same compound, the TGI (U251 CNS) was 16.8 µM, the TGI (UACC-257 melanoma) was 35.9 µM and the TGI (UACC-62 melanoma) was 33.5 µM. For the same compound, the TGI (UO-31 renal) was 31.9 µM.
`CO[C@@H]1C=C[C@@]23c4cc5c(cc4C(O)N(CC2O)C3C1)OCO5` (some centres not stated) showed a TGI (786-0 renal) of 22.6 µM, a TGI (A498 renal) of 7.68 µM and a TGI (A549 NSCLC) of 39.5 µM. For the same compound, the TGI (ACHN renal) was 18.6 µM, the TGI (BT-549 breast) was 20.5 µM and the TGI (CAKI-1 renal) was 27.2 µM. For the same compound, the TGI (CCRF-CEM leukemia) was 5.38 µM, the TGI (COLO 205 colon) was 14.2 µM and the TGI (DU-145 prostate) was 50.7 µM. For the same compound, the TGI (EKVX NSCLC) was 33.3 µM, the TGI (HCT-116 colon) was 21.3 µM and the TGI (HCT-15 colon) was 39.3 µM. For the same compound, the TGI (HL-60(TB) leukemia) was 5.64 µM, the TGI (HOP-62 NSCLC) was greater than 100 µM and the TGI (HOP-92 NSCLC) was 13.6 µM. The TGI (HS 578T breast) was greater than 100 µM, the TGI (HT29 colon) was 26.2 µM and the TGI (IGROV1 ovarian) was 68.9 µM. For the same compound, the TGI (K-562 leukemia) was greater than 100 µM, the TGI (KM12 colon) was 17 µM and the TGI (LOX IMVI melanoma) was 48.5 µM. It also gave a TGI (M14 melanoma) of 12.6 µM, a TGI (MALME-3M melanoma) greater than 100 µM and a TGI (MCF7 breast) of 8.64 µM. The TGI (MDA-MB-231 breast) was 21.8 µM, the TGI (MDA-MB-435) was 18.2 µM and the TGI (MDA-N) was 26.1 µM. For the same compound, the TGI (MOLT-4 leukemia) was greater than 100 µM, the TGI (NCI-H226 lung) was greater than 100 µM and the TGI (NCI-H23 lung) was 56.1 µM. For the same compound, the TGI (NCI-H460 lung) was 12.9 µM, the TGI (NCI-H522 lung) was greater than 100 µM and the TGI (NCI/ADR-RES ovarian) was 75.1 µM. The TGI (OVCAR-3 ovarian) was 58.8 µM, the TGI (OVCAR-4 ovarian) was 19.4 µM and the TGI (OVCAR-5 ovarian) was 79.3 µM. For the same compound, the TGI (OVCAR-8 ovarian) was greater than 100 µM, the TGI (PC-3 prostate) was 17.5 µM and the TGI (RPMI-8226 leukemia) was greater than 100 µM. It also gave a TGI (RXF 393 renal) of 50.3 µM, a TGI (SF-268 CNS) greater than 100 µM and a TGI (SF-295 CNS) of 64.1 µM. The TGI (SF-539 CNS) was greater than 100 µM, the TGI (SK-MEL-2 melanoma) was 9.09 µM and the TGI (SK-MEL-28 melanoma) was greater than 100 µM. The TGI (SK-MEL-5 melanoma) was 6.01 µM, the TGI (SK-OV-3 ovarian) was greater than 100 µM and the TGI (SN12C renal) was greater than 100 µM. The TGI (SNB-19 CNS) was 33.8 µM, the TGI (SNB-75 CNS) was 6.92 µM and the TGI (SR leukemia) was greater than 100 µM. For the same compound, the TGI (SW-620 colon) was greater than 100 µM, the TGI (T-47D breast) was 8.01 µM and the TGI (TK-10 renal) was 23 µM. The TGI (U251 CNS) was 16.6 µM, the TGI (UACC-257 melanoma) was 5.9 µM and the TGI (UACC-62 melanoma) was 20.4 µM. It also gave a TGI (UO-31 renal) of 36.8 µM.
`CCN(CC)CCOC(=O)CCN1CC2CCC(CC2)C1` gave a TGI (786-0 renal) greater than 100 µM, a TGI (A498 renal) greater than 100 µM and a TGI (A549 NSCLC) greater than 100 µM. For the same compound, the TGI (ACHN renal) was greater than 100 µM, the TGI (BT-549 breast) was greater than 100 µM and the TGI (CAKI-1 renal) was greater than 100 µM. For the same compound, the TGI (CCRF-CEM leukemia) was greater than 100 µM, the TGI (COLO 205 colon) was greater than 100 µM and the TGI (DU-145 prostate) was greater than 100 µM. The TGI (EKVX NSCLC) was greater than 100 µM, the TGI (HCC-2998 colon) was greater than 100 µM and the TGI (HCT-116 colon) was greater than 100 µM. It also gave a TGI (HCT-15 colon) greater than 100 µM, a TGI (HL-60(TB) leukemia) greater than 100 µM and a TGI (HOP-92 NSCLC) greater than 100 µM. The TGI (HS 578T breast) was greater than 100 µM, the TGI (HT29 colon) was greater than 100 µM and the TGI (IGROV1 ovarian) was greater than 100 µM. The TGI (K-562 leukemia) was greater than 100 µM, the TGI (KM12 colon) was greater than 100 µM and the TGI (LOX IMVI melanoma) was greater than 100 µM. The TGI (M14 melanoma) was greater than 100 µM, the TGI (MALME-3M melanoma) was greater than 100 µM and the TGI (MCF7 breast) was greater than 100 µM. For the same compound, the TGI (MDA-MB-231 breast) was greater than 100 µM, the TGI (MDA-MB-435) was greater than 100 µM and the TGI (MDA-N) was greater than 100 µM. For the same compound, the TGI (MOLT-4 leukemia) was greater than 100 µM, the TGI (NCI-H226 lung) was greater than 100 µM and the TGI (NCI-H23 lung) was greater than 100 µM. It also gave a TGI (NCI-H460 lung) greater than 100 µM, a TGI (NCI-H522 lung) greater than 100 µM and a TGI (NCI/ADR-RES ovarian) greater than 100 µM. For the same compound, the TGI (OVCAR-3 ovarian) was greater than 100 µM, the TGI (OVCAR-4 ovarian) was greater than 100 µM and the TGI (OVCAR-5 ovarian) was greater than 100 µM. For the same compound, the TGI (OVCAR-8 ovarian) was greater than 100 µM, the TGI (PC-3 prostate) was greater than 100 µM and the TGI (RPMI-8226 leukemia) was greater than 100 µM. The TGI (RXF 393 renal) was greater than 100 µM, the TGI (SF-295 CNS) was greater than 100 µM and the TGI (SF-539 CNS) was greater than 100 µM. The TGI (SK-MEL-2 melanoma) was greater than 100 µM, the TGI (SK-MEL-28 melanoma) was greater than 100 µM and the TGI (SK-MEL-5 melanoma) was greater than 100 µM. The TGI (SK-OV-3 ovarian) was greater than 100 µM, the TGI (SNB-19 CNS) was greater than 100 µM and the TGI (SNB-75 CNS) was greater than 100 µM. The TGI (SR leukemia) was greater than 100 µM, the TGI (SW-620 colon) was greater than 100 µM and the TGI (T-47D breast) was greater than 100 µM. The TGI (TK-10 renal) was greater than 100 µM, the TGI (U251 CNS) was greater than 100 µM and the TGI (UACC-257 melanoma) was greater than 100 µM. For the same compound, the TGI (UACC-62 melanoma) was greater than 100 µM and the TGI (UO-31 renal) was greater than 100 µM.

Reference: PubChem BioAssay (NCI)
